Laboratory results: publication PMC9864008, “Novel Black Seed Polysaccharide Extract-g-Poly (Acrylate) pH-Responsive Hydrogel Nanocomposites for Safe Oral Insulin Delivery: Development, In Vitro, In Vivo and Toxicological Evaluation” (Pharmaceutics, 2022)

Key:
[1] = tested on: diabetic male albino rabbits; test: In vivo pharmacodynamics: blood glucose level in alloxan-induced diabetic rabbits; set-up: species or system rabbit; conditions: for Blood glucose level (% of initial, % BGL) at maximum decrease: n = 6, oral 10 IU/kg or SC 5 IU/kg, SC standard within first 3 h, Ins-BA hydrogel at 8 h, Ins-Mmt-BA hydrogel NC at 20 h
Description: A crossover study was designed to evaluate the insulin intestinal absorption and its release pattern over time from the developed BA hydrogels versus Ins-Mmt-BA hydrogel NCs. For this purpose, under the approval of IREC vide notification number IREC-2020-22, strictly following OECD guidelines, a total of 30 healthy male albino rabbits (≥2 kg weight) were taken. All animals were exposed to 12 h light and darkness cycles for 7 days to acclimatize with ambient atmosphere. For diabetes induction, all rabbits were administered alloxan monohydrate injection (Sigma-Aldrich, Germany) in a single intraperitoneal dose of 150 mg/kg. A 5% glucose solution was administered ad libitum for 24 h to avoid alloxan-induced hypoglycemia. To confirm diabetes induction all, animals’ blood was withdrawn daily from the ear marginal vein for checking blood glucose levels with the help of a glucometer and glucose strips (ACCU-CHEK®, Roche, Basel, Switzerland) for 10 days. Rabbits displaying fasting blood glucose levels higher than 150 mg/dL were considered as diabetic.

[2] = cited from earlier work
Description: Humulin® R U-100 (containing human insulin with the strength 100 units/mL) is a sterile, colourless and aqueous solution formulation. It is a short-acting polypeptide hormone produced by an Escherichia coli strain obtained by using recombinant DNA technology. Firstly, it controls blood sugar by inhibiting hepatic glucose production, and secondly, it stimulates glucose uptake from peripheral skeletal muscles and fat cells. When administered subcutaneously (SC), it starts showing therapeutic response within 30 min and its effect lasts up to 8h, with the dose in the range of 0.05–0.4 units/kg. W ...

[3] = rabbit, in vivo
Description: After diabetes induction, the rabbits were placed into 5 groups (n = 6) randomly. The first group was orally administered with ground Ins-BA hydrogel (10 IU/kg) by an oral gavage needle with 5 mL of water to ensure complete dose administration. The second group was given orally the ground Ins-Mmt-BA hydrogel NC (10 IU/kg). The third group, acting as a positive control, was subcutaneously (SC) injected with standard Humulin-R® insulin (5 IU/kg). The fourth group was orally administered with insulin solution (10 IU/kg). The fifth group, acting as a negative control was administered with blank hydrogel. Blood samples were taken at specified intervals (0, 1, 2, 3, 4, 6, 8, 10, 12, 16, 20, 22 and 24 h) from the jugular vein and collected in EDTA containing sample collection tubes. The blood samples were then centrifuged at 3500 rpm for 15 min and separated plasma samples were stored at –20 °C for further detection of insulin by the HPLC method. At the same intervals, blood samples were also checked for blood glucose levels by a glucometer for observing the pharmacodynamic effect of the administered dosage forms [8].
For pharmacokinetic evaluation, a previously developed HPLC method for insulin detection in plasma was used with slight modifications [37]. The HPLC system (Hitachi, Tokyo, Japan) comprising a Gilson delivery pump with a 6-valved sample injection port fitted with a 20 µL sample loop, A UV-visible detector, thermostat column and chromato-integrator were used for sample analysis. The RP-C18 (150 × 4.60 mm ID, 5 µm) analytical column (Phenomenex, Torrance, CA, USA) was used. The mobile phase was prepared by 0.2 M Na2SO4 solution with pH adjusted to 2.3 with orthophosphoric acid mixed with acetonitrile (74:26) and filtered through 0.5 µm membrane filters and sonicated for 10 min to remove dissolved gas bubbles. The stock solution of insulin at 140 µg/mL strength was made in PBS. The serial dilutions of insulin solution (3.5 µg/mL to 140 µg/mL) after filtering through a 0.2 µm membrane filter were injected into a chromatographic column to find the linearity curve to develop a method for insulin detection. The linearity curve with the same serial dilutions of insulin in plasma was also determined. For sample preparation from collected plasma, 200 µL of thawed plasma (collected at different intervals) was mixed with 800 µL of n-hexane:dichloromethane (1:1). The mixture was centrifuged for 10 min at 3500 rpm (Hitachi Zentrifugen EBA 20, Hitachi Ltd., Tokyo, Japan). The supernatant with extracted insulin was used after filtering through a 0.22 µm membrane filter (Sartorius, Göttingen, Germany) for injection into the HPLC system. […]

[4] = intravenous, dose 0.1–0.2 units/kg
[5] = subcutaneous, dose 0.05–0.4 units/kg

Substance	Blood glucose level (% of initial, % BGL) at 8 h ([1]; n = 6, SC 5 IU/kg, 8 h interval)	Blood glucose level (% of initial, % BGL) at maximum decrease [1]	Duration of effect after IV administration [2, 4]	Start of pharmacologic effect after IV administration [2, 4]	Duration of effect after SC administration [2, 5]	Start of therapeutic response after SC administration [2, 5]	Cl [3]	Vd [3]	t1/2 [3]	tmax [3]
SC insulin standard: standard Humulin-R human insulin injection, 100 IU/mL, given subcutaneously	59.67%	13.55%	up to 4 h	10–15 min	up to 8 h	≤ 30 min	13.361 mL/h	67.326 mL	3.493 h	3 h
oral insulin solution: insulin solution administered orally (10 IU/kg)	–	no significant decrease in % BGL	–	–	–	–	–	–	–	–
